Here are results for 20 compounds from patent US11400081B2, “Compounds” (The University of Sheffield, priority 2017, dated 2022).

The target of the experiment is T1, AM2 receptor (CALCRL+RAMP3) (Homo sapiens, UniProt O60896+Q16602).
T1 construct: host or cells: 1321N1
In words: AM2 receptor inhibition, LANCE TR-FRET cAMP agonist-antagonist competition assay. It is filed as cell-based. The note with it: inhibition of AM induced cAMP activation; 1321N1 cells transfected with CALCRL+RAMP3; read-out: AM2 pIC50 (converted). How it is done:
Compounds were assessed for their ability to inhibit ligand-induced elevations of cAMP, using the Perkin Elmer LANCE cAMP assay using commercially-available cells expressing a specific receptor of interest using the following general procedure:
Compounds were prepared in dimethyl sulfoxide (DMSO—99.9% pure) (Sigma Aldrich, Cat #: D4540) added to powder stocks to produce a 20 mM solution (100% DMSO) that was sonicated at 37° C. for 10 minutes to fully dissolve the compounds. The 20 mM stocks were diluted further in DMSO to produce a 2 mM solution that was sonicated at 37° C. for 10 minutes. 2 mM stocks were dissolved in assay/stimulation buffer to produce a 400 μM solution that was sonicated at 37° C. for 10 minutes for all cAMP assays. All stocks were stored at −20° C. Then serial dilution (Dilution factor 10) was performed to achieve the desire experimental concentrations.
Competition assays were performed according to the manufactures instructions using LANCE® TR-FRET cAMP assay kit (Perkin Elmer, Cat #: AD0264). Serial dilutions (3 μl/well) of the molecules were plated in a 384-well OptiPlate (Perkin Elmer, Cat #: 6007299) in duplicates. Appropriate controls (100% stimulation: Forskolin and 0% stimulation: Vehicle control) (6 μl/well) were included in each plate for data normalization. Following the compound addition, 6 μl of G-protein coupled receptor overexpressing cells/Alexa Fluor antibody solution (1:100 dilution) was added in each well at a desired density of 2500 cells/well. The overexpressing cell lines were purchased from DiscoveRx, Birmingham, UK. After spinning the plate at 1000 rpm for 1 minute and vortexing briefly, the cells were pre-incubated with the compounds for 30 minutes at room temperature (covered). Then 3 μl of the equivalent peptide ligand (EC50 dose) was added to all the wells except vehicle and forskolin controls. The plate were then spun down at 1000 rpm for 1 minute and once finished they were vortexed briefly and covered. Cells were stimulated in the presence of the ligands for 15 minutes at room temperature. After stimulation 12 μl of detection mix (Europium-Chelate streptavidin/biotinylated cAMP tracer solution) was added to all wells and incubated for 60 minutes at room temperature. The plate was then read on the Enspire multimode Plate reader (Perkin Elmer), at; 320/340 nm excitation and 615/665 nm emission was recorded.
• 28 mL Hank's Balanced salt solution (+MgCl2, +CaCl2)—(Thermo Fisher Cat #:14170112) • 150 μl HEPES (1M)—(Thermo Fisher Cat #:15630080) • 400 μl Stabilizer (DTPA) Purified BSA (7.5%)—(Perkin Elmer, Cat #: CR84-100) • 60 μl IBMX (250 mM)—(Sigma Aldrich, Cat #: 15879) Specific cAMP/Agonist-Antagonist Competition Assays
The ability of a compound to inhibit the AM induced cAMP activation in AM2 receptor-expressing cells (1321N1 cells transfected with CALCRL+RAMP3, sourced from DiscoverX catalogue number 95-0169C6) was assessed using the protocol above.

T1 sequence (Q16602 23-461): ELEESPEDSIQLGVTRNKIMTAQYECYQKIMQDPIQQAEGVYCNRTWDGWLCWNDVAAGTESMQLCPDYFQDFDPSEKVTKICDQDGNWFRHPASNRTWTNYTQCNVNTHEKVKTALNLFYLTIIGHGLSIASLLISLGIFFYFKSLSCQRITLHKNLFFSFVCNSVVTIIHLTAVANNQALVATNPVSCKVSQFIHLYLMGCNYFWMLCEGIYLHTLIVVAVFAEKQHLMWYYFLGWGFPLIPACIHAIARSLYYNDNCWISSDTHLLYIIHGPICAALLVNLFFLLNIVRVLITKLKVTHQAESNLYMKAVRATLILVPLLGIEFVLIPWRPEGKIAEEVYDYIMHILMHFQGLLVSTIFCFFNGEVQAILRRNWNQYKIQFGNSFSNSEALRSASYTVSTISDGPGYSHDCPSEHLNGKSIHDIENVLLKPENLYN
T1 sequence (O60896 24-148): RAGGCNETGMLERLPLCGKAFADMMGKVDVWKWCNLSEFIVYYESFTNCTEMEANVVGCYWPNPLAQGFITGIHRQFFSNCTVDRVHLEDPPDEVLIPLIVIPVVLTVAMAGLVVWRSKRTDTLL

On to `CC(C)(C)C(=O)N(CC(=O)Nc1ccc2c(c1)CC1(C2)C(=O)Nc2ncccc21)Cc1ccccc1CNCCF` (centres unmarked) [Example 17, N-(2-(((2-Fluoroethyl)amino)methyl)benzyl)-N-(2-oxo-2-((2′-oxo-1,1′,2′,3-tetrahydrospiro[indene-2,3′-pyrrolo[2,3-b]pyridin]-5-yl)amino)ethyl)pivalamide], for which the IC50 was 12.3 nM. Take `COCCNCc1ccccc1CN(CC(=O)Nc1ccc2c(c1)CC1(C2)C(=O)Nc2ncccc21)C(=O)C(C)(C)C` (centres unmarked) [Example 18, N-(2-(((2-Methoxyethyl)amino)methyl)benzyl)-N-(2-oxo-2-((2′-oxo-1,1′,2′,3-tetrahydrospiro[indene-2,3′-pyrrolo[2,3-b]pyridin]-5-yl)amino)ethyl)pivalamide]: the IC50 was 33.1 nM. With `CC(C)NCc1ccccc1CN(CC(=O)Nc1ccc2c(c1)CC1(C2)C(=O)Nc2ncccc21)C(=O)C(C)(C)C` (centres unmarked) [Example 19, N-(2-((Isopropylamino)methyl)benzyl)-N-(2-oxo-2-((2′-oxo-1,1′,2′,3-tetrahydrospiro[indene-2,3′-pyrrolo[2,3-b]pyridin]-5-yl)amino)ethyl)pivalamide] the figure was 89.1 nM. To `CC(C)(C)C(=O)N(CC(=O)Nc1ccc2c(c1)CC1(C2)C(=O)Nc2ncccc21)Cc1ccccc1CNC1CCC1` (centres unmarked) [Example 20, N-(2-((Cyclobutylamino)methyl)benzyl)-N-(2-oxo-2-((2′-oxo-1,1′,2′,3-tetrahydrospiro[indene-2,3′-pyrrolo[2,3-b]pyridin]-5-yl)amino)ethyl)pivalamide] belongs 105 nM; to `CNC(C)c1ccccc1CN(CC(=O)Nc1ccc2c(c1)CC1(C2)C(=O)Nc2ncccc21)C(=O)C(C)(C)C` (centres unmarked) [Example 23, N-(2-(1-(Methylamino)ethyl)benzyl)-N-(2-oxo-2-((2′-oxo-1,1′,2′,3-tetrahydrospiro[indene-2,3′-pyrrolo[2,3-b]pyridin]-5-yl)amino)ethyl)pivalamide], 13.2 nM; to `CC(c1ccccc1CN(CC(=O)Nc1ccc2c(c1)CC1(C2)C(=O)Nc2ncccc21)C(=O)C(C)(C)C)N(C)C` (centres unmarked) [Example 24, N-(2-(1-(Dimethylamino)ethyl)benzyl)-N-(2-oxo-2-((2′-oxo-1,1′,2′,3-tetrahydrospiro[indene-2,3′-pyrrolo[2,3-b]pyridin]-5-yl)amino)ethyl)pivalamide], 34.7 nM. To `CC(c1ccccc1CN(CC(=O)Nc1ccc2c(c1)CC1(C2)C(=O)Nc2ncccc21)C(=O)C(C)(C)C)N1CCC1` (centres unmarked) [Example 25, N-(2-(1-(Azetidin-1-yl)ethyl)benzyl)-N-(2-oxo-2-((2′-oxo-1,1′,2′,3-tetrahydrospiro[indene-2,3′-pyrrolo[2,3-b]pyridin]-5-yl)amino)ethyl)pivalamide] belongs 75.9 nM.

For the compound `CCNCc1ccccc1CN(CC(=O)Nc1ccc2c(c1)CC1(C2)C(=O)Nc2ncccc21)C(=O)C(C)(C)C` (centres unmarked) [Example 27, N-(2-((Ethylamino)methyl)benzyl)-N-(2-oxo-2-((2′-oxo-1,1′,2′,3-tetrahydrospiro[indene-2,3′-pyrrolo[2,3-b]pyridin]-5-yl)amino)ethyl)pivalamide], the IC50 was 30.2 nM. Regarding `C=CCN(CC=C)CCc1ccccc1CN(CC(=O)Nc1ccc2c(c1)CC1(C2)C(=O)Nc2ncccc21)C(=O)C(C)(C)C` (centres unmarked) [Example 28, N-(2-(2-(Diallylamino)ethyl)benzyl)-N-(2-oxo-2-((2′-oxo-1,1′,2′,3-tetrahydrospiro[indene-2,3′-pyrrolo[2,3-b]pyridin]-5-yl)amino)ethyl)pivalamide], the IC50 is 490 nM.

As for `CN(C)Cc1ccccc1CN(CC(=O)Nc1ccc2c(c1)CC1(C2)C(=O)Nc2ncccc21)C(=O)C(C)(C)C` (centres unmarked) [Example 30, N-(2-((Dimethylamino)methyl)benzyl)-N-(2-oxo-2-((2′-oxo-1,1′,2′,3-tetrahydrospiro[indene-2,3′-pyrrolo[2,3-b]pyridin]-5-yl)amino)ethyl)pivalamide], the IC50 was 29.5 nM. With `CNCc1ccccc1CN(C(=O)C(C)(C)C)[C@@H](C)C(=O)Nc1ccc2c(c1)CC1(C2)C(=O)Nc2ncccc21` (stereo partly drawn) [Example 34, N-(2-((Methylamino)methyl)benzyl)-N-((2S)-1-oxo-1-((2′-oxo-1,1′,2′,3-tetrahydrospiro[indene-2,3′-pyrrolo[2,3-b]pyridin]-5-yl)amino)propan-2-yl)pivalamide], the IC50 was 12.3 nM. To `CNCc1ccccc1CN(C(=O)C(C)(C)C)[C@H](C)C(=O)Nc1ccc2c(c1)CC1(C2)C(=O)Nc2ncccc21` (stereo partly drawn) [Example 35, N-(2-((Methylamino)methyl)benzyl)-N-((2R)-1-oxo-1-((2′-oxo-1,1′,2′,3-tetrahydrospiro[indene-2,3′-pyrrolo[2,3-b]pyridin]-5-yl)amino)propan-2-yl)pivalamide] belongs 18.2 nM; to `CNCc1c(F)cccc1CN(CC(=O)Nc1ccc2c(c1)CC1(C2)C(=O)Nc2ncccc21)C(=O)C(C)(C)C` (centres unmarked) [Example 36, N-(3-fluoro-2-((methylamino)methyl)benzyl)-N-(2-oxo-2-((2′-oxo-1,1′,2′,3-tetrahydrospiro[indene-2,3′-pyrrolo[2,3-b]pyridin]-5-yl)amino)ethyl)pivalamide], 93.3 nM; to `CNCc1cc(F)c(F)cc1CN(CC(=O)Nc1ccc2c(c1)CC1(C2)C(=O)Nc2ncccc21)C(=O)C(C)(C)C` (centres unmarked) [Example 37, N-(4,5-difluoro-2-((methylamino)methyl)benzyl)-N-(2-oxo-2-((2′-oxo-1,1′,2′,3-tetrahydrospiro[indene-2,3′-pyrrolo[2,3-b]pyridin]-5-yl)amino)ethyl)pivalamide], 145 nM. With `Cc1cc2c(cc1NC(=O)CN(Cc1ccccc1CN)C(=O)C(C)(C)C)CC1(C2)C(=O)Nc2ncccc21` (centres unmarked) [Example 39, N-(2-(Aminomethyl)benzyl)-N-(2-((5-methyl-2′-oxo-1,1′,2,3-tetrahydrospiro[indene-2,3′-pyrrolo[2,3-b]pyridin]-6-yl)amino)-2-oxoethyl)pivalamide] the figure was 15.5 nM; with `CNCc1ccccc1CN(CC(=O)Nc1cc2c(cc1C)CC1(C2)C(=O)Nc2ncccc21)C(=O)C(C)(C)C` (centres unmarked) [Example 40, N-(2-((5-Methyl-2′-oxo-1,1′,2′,3-tetrahydrospiro[indene-2,3′-pyrrolo[2,3-b]pyridin]-6-yl)amino)-2-oxoethyl)-N-(2-((methylamino)methyl)benzyl)pivalamide], 7.41 nM; with `CC(C)(C)C(=O)N(CC(=O)Nc1ccc2c(c1)CC1(C2)C(=O)Nc2ncccc21)Cc1ccccc1C(=N)NO` (centres unmarked) [Example 41, N-(2-(N-Hydroxycarbamimidoyl)benzyl)-N-(2-oxo-2-((2′-oxo-1,1′,2′,3-tetrahydrospiro[indene-2,3′-pyrrolo[2,3-b]pyridin]-5-yl)amino)ethyl)pivalamide], 100 nM.

For the compound `CC(=N)NCc1ccccc1CN(CC(=O)Nc1ccc2c(c1)CC1(C2)C(=O)Nc2ncccc21)C(=O)C(C)(C)C` (centres unmarked) [Example 42, N-(2-(Acetimidamidomethyl)benzyl)-N-(2-oxo-2-((2′-oxo-1,1′,2′,3-tetrahydrospiro[indene-2,3′-pyrrolo[2,3-b]pyridin]-5-yl)amino)ethyl)pivalamide], the IC50 is 135 nM.

Consider `CC(C)(C)OC(=O)N(CC(=O)Nc1ccc2c(c1)CC1(C2)C(=O)Nc2ncccc21)Cc1ccccc1CN1CCC1` (centres unmarked) [Example 44, tert-Butyl 2-(azetidin-1-ylmethyl)benzyl(2-oxo-2-((2′-oxo-1,1′,2′,3-tetrahydrospiro[indene-2,3′-pyrrolo[2,3-b]pyridin]-5-yl)amino)ethyl)carbamate], for which the IC50 is 74.1 nM. As for `O=C(CN(Cc1ccccc1CN1CCC1)C(=O)CC(F)(F)F)Nc1ccc2c(c1)CC1(C2)C(=O)Nc2ncccc21` (centres unmarked) [Example 45, N-(2-(Azetidin-1-ylmethyl)benzyl)-3,3,3-trifluoro-N-(2-oxo-2-((2′-oxo-1,1′,2,3-tetrahydrospiro[indene-2,3′-pyrrolo[2,3-b]pyridin]-5-yl)amino)ethyl)propanamide], the IC50 was 245 nM.
